Experimental data as given in patent US9657037B2, “Pyrrole compounds with silicon incorporation” (COUNCIL OF SCIENTIFIC AND INDUSTRIAL RESEARCH, priority 2013, dated 2017).
Values after ≈ are worked out from the molar mass of the structure shown. Read-outs that look alike come from different tables or passages of the source.

Experiments:
[1] = tested on: Mycobacterium tuberculosis H37Rv; settings: according to literature (Biava. M et. al; J. Med. Chem 2008; 51; 3644); cited from earlier work
[2] = tested on: Mycobacterium tuberculosis H37Rv; assay: Antitubercular activity, growth inhibition by Alamar-Blue / resazurin microtiter assay; type: cell-based

SMILES | MIC [1] | MIC ([2]; H37Rv, 7H9-OADC media with 0.5% glycerol and 1 mg ml−1 tryptone, 37° C., 96-well plates, visual readout, read-out: MIC) | MIC ([2]; H37RV)
Cc1c(CN2CCN(C)CC2)cc(-c2ccc(Cl)cc2)n1-c1ccc(Cl)cc1 [BM212, 1,5-diaryl-2-methyl-3-(4-methylpiperazin-1-yl)methyl-pyrrole, reference compound] | 0.7 µg/mL (≈ 1.69 µM) | 1.56 µg/mL (≈ 3.76 µM) | –
Cc1c(CN2CC[Si](C)(C)CC2)cc(-c2ccc(Cl)cc2)n1-c1ccc(Cl)cc1 [Compound 9, 1-((1,5-bis(4-chlorophenyl)-2-methyl-1H-pyrrol-3-yl)methyl)-4,4-dimethyl-1,4-azasilinane] | – | – | 0.04 µg/mL (≈ 0.0902 µM)
CSc1ccc(-c2cc(CN3CC[Si](C)(C)CC3)c(C)n2-c2ccc(F)cc2)cc1 [Compound 10a, 1-((1-(4-fluorophenyl)-2-methyl-5-(4-(methylthio)phenyl)-1H-pyrrol-3-yl)methyl)-4,4-dimethyl-1,4-azasilinane] | – | – | 0.08 µg/mL (≈ 0.182 µM)
CSc1ccc(-c2c(CN3CC[Si](C)(C)CC3)cc(C)n2-c2ccc(F)cc2)cc1 [Compound 10b, 1-((1-(4-fluorophenyl)-5-methyl-2-(4-(methylthio)phenyl)-1H-pyrrol-3-yl)methyl)-4,4-dimethyl-1,4-azasilinane] | – | – | 1.56 µg/mL (≈ 3.56 µM)
Cc1c(CN2CC[Si](C)(C)CC2)cc(-c2ccc(C(C)C)cc2)n1-c1ccc(Cl)cc1 [Compound 11a, 1-((1-(4-chlorophenyl)-5-(4-isopropylphenyl)-2-methyl-1H-pyrrol-3-yl)methyl)-4,4-dimethyl-1,4-azasilinane] | – | – | 0.04 µg/mL (≈ 0.0887 µM)
CSc1ccc(-c2cc(CN3CC[Si](C)(C)CC3)c(C)n2-c2ccc(C(C)C)cc2)cc1 [Compound 12a, 1-((1-(4-isopropylphenyl)-2-methyl-5-(4-(methylthio)phenyl)-1H-pyrrol-3-yl)methyl)-4,4-dimethyl-1,4-azasilinane] | – | – | 0.04 µg/mL (≈ 0.0864 µM)
CSc1ccc(-c2c(CN3CC[Si](C)(C)CC3)cc(C)n2-c2ccc(C(C)C)cc2)cc1 [Compound 12b, 1-((1-(4-isopropylphenyl)-5-methyl-2-(4-(methylthio)phenyl)-1H-pyrrol-3-yl)methyl)-4,4-dimethyl-1,4-azasilinane] | – | – | 1.25 µg/mL (≈ 2.7 µM)
CCc1ccc(-n2c(-c3ccc(Cl)cc3)cc(CN3CC[Si](C)(C)CC3)c2C)cc1 [Compound 13, 1-((5-(4-chlorophenyl)-1-(4-ethylphenyl)-2-methyl-1H-pyrrol-3-yl)methyl)-4,4-dimethyl-1,4-azasilinane] | – | – | 0.08 µg/mL (≈ 0.183 µM)
COc1ccc(-c2c(CN3CC[Si](C)(C)CC3)cc(C)n2-c2ccc(F)cc2)cc1 [Compound 14, 1-((1-(4-fluorophenyl)-2-(4-methoxyphenyl)-5-methyl-1H-pyrrol-3-yl)methyl)-4,4-dimethyl-1,4-azasilinane] | – | – | 3.12 µg/mL (≈ 7.38 µM)
Cc1c(CN2CC[Si](C)(C)CC2)cc(-c2ccc(Cl)cc2)n1-c1ccccc1 [Compound 15, 1-((5-(4-chlorophenyl)-2-methyl-1-phenyl-1H-pyrrol-3-yl)methyl)-4,4-dimethyl-1,4-azasilinane] | – | – | 0.04 µg/mL (≈ 0.0978 µM)
CCc1ccc(-c2cc(CN3CC[Si](C)(C)CC3)c(C)n2-c2ccc(OC)cc2)cc1 [Compound 16, 1-((5-(4-ethylphenyl)-1-(4-methoxyphenyl)-2-methyl-1H-pyrrol-3-yl)methyl)-4,4-dimethyl-1,4-azasilinane] | – | – | 0.08 µg/mL (≈ 0.185 µM)
Cc1ccc(-c2cc(CN3CC[Si](C)(C)CC3)c(C)n2-c2ccc(F)cc2)cc1 [Compound 17, 1-((1-(4-fluorophenyl)-2-methyl-5-(p-tolyl)-1H-pyrrol-3-yl)methyl)-4,4-dimethyl-1,4-azasilinane] | – | – | 0.04 µg/mL (≈ 0.0984 µM)
CCOc1ccc(-c2c(CN3CC[Si](C)(C)CC3)cc(C)n2-c2ccc(OC)cc2)cc1 [Compound 18, 1-((2-(4-ethoxyphenyl)-1-(4-methoxyphenyl)-5-methyl-1H-pyrrol-3-yl)methyl)-4,4-dimethyl-1,4-azasilinane] | – | – | 5 µg/mL (≈ 11.1 µM)
Cc1c(CN2CC[Si](C)(C)CC2)cc(-c2ccc(Cl)cc2)n1-c1ccc(C(C)C)cc1 [Compound 19, 1-((5-(4-chlorophenyl)-1-(4-isopropylphenyl)-2-methyl-1H-pyrrol-3-yl)methyl)-4,4-dimethyl-1,4-azasilinane] | – | – | 0.04 µg/mL (≈ 0.0887 µM)
